The values below come from BindingDB's records for patent US20240116922 (Biogen Ma, 2024).

What is called IC50 is the concentration that gives 50% inhibition. Higher therefore signals lower potency.

This assay has as its target T1, Interleukin-1 receptor-associated kinase 4 (Homo sapiens, UniProt Q9NWZ3).
T1 sequence (Q9NWZ3 whole entry): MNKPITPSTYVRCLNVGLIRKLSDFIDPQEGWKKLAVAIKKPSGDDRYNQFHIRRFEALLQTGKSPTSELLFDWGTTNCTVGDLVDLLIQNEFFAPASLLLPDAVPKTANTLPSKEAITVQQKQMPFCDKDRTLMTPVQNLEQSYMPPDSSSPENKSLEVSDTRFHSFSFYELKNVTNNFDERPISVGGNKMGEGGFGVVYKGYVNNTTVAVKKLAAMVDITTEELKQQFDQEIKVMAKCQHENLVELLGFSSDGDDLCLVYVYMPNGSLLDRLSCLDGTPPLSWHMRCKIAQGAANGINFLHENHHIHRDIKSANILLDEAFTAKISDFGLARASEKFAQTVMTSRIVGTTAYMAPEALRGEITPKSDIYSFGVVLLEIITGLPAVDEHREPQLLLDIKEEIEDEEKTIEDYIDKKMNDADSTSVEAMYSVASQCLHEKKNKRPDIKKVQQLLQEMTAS
Nature of the assay: Biochemical Assay.

Description: The 2-hour 1 mM ATP Biochemical Assay employed a MesoScale Detection (MSD) format. […] After a 1 hour incubation of the plate for 1 hour at room temperature with gentle mixing, the plate wells were washed 3 times with 50 mM Tris, pH 7.5, 150 mM NaCl, 0.02% Tween-20.A 25 μl volume of 1:500 anti-P-Threonine Rabbit polyclonal Antibody plus 1:500 Goat-anti-Rabbit Sulfo Tag Antibody (Meso Scale Discovery R32AB-1) in 50 mM Tris, pH 7.5, 150 mM NaCl, 0.02% Tween-20 plus 2% BSA was then added to each well. After a 1-hour incubation of the plate for 1 hour at room temperature with gentle mixing, the plate wells were washed, 3 times with 50 mM Tris, pH 7.5, 150 mM NaCl, 0.02% Tween-20.

`CC[C@H](C)Oc1nc2nc(C34COC(C)(C3)C4)cn2cc1C(=O)Nc1cccn([C@@H]2C[C@@H]2F)c1=O` (mixture of isomers) [US20240116922, Example 42] gave an IC50 of 0.3 nM. `CC[C@H](C)Oc1cc2nc(C34COC(C)(C3)C4)cn2cc1C(=O)Nc1cccn([C@@H]2C[C@@H]2F)c1=O` (mixture of isomers) [US20240116922, Example 96] came in with an IC50 of 0.2 nM. Turning to `CC(C)Oc1cc2nc(C34COC(C)(C3)C4)cn2cc1C(=O)Nc1ccnn(C2CC2)c1=O` [US20240116922, Example 76], 1.6 nM corresponded to half-maximal inhibition (IC50).
